The series concerns Human lung fibroblasts, WI26 cell. Description: Inhibitory effect on WI26 cells proliferation (CCK-8 assay). The format is cell-based. The note with it: for inhibition at 30 µg/mL / inhibition at 15 µg/mL: Homo sapiens, Fibroblast, CCK-8; for inhibition at 30 µg/mL: read-out: inhibition rate, WI26 cells proliferation; for toxicity to cell: based on dynamics of the inhibitory effect in FIG. 2. On the procedure:
Cells: Human lung fibroblasts, WI26 cell;
Methods: wherein WI26 cells at 70-80% confluent were trysinized by 0.25% trypsin solution and seeded in 96-well plates at an initial density of 1×10^4 cells/mL. A medium was replaced 24 h later by the fresh with 15 μg/ml compound 1 and 1/1000 DMSO (drug treatment group 1 and its control) or 30 μg/ml compound 2 and 1/1000 DMSO (drug treatment group 2 and its control), then the medium was refreshed and cell viability was measured by using a CCK-8 method at day 0, 1, 2, 3, 4, 5, 6, respectively. Proliferation measurement was applied by adding 100 μL complete medium and 10 μL CCK-8 solutions to each well and incubating for 1 h. OD values of each well were measured at a primary wavelength λ=450 nm by using a Microplate Spectrophotometer. Data are shown as means±standard deviation (SD) of three independent experiments, each performed in triplicate.
On the technique in general: Formazan colour is commonly taken as a measure of viable cells.

SMILES strings stand for the structures. Where two headings read alike, the source gives them in different places.

Take `CC(C)=CCC[C@]1(C)Oc2ccc(C(=O)N[C@H](C(=O)O)[C@@H](C)O)cc2C[C@@H]1O` [compound 2, Xiamenmycin, reference compound]: the inhibition at 30 µg/mL by setting is: (30 μg/ml compound 2, day one) 10%; (30 μg/ml compound 2, day six) 28.5%. Also, the toxicity to cell entry (normal human lung fibroblasts) is reported as “low toxicity”.

Turning to `CC(C)=CCC[C@]1(C)Oc2ccc(C(N)=O)cc2C[C@@H]1O` [compound 1, xiamenmycin C], the inhibition at 15 µg/mL amounted to 13.8% (15 μg/ml compound 1, day one) and 38% (15 μg/ml compound 1, day six). In addition, the toxicity to cell result (normal human lung fibroblasts) is recorded as “low toxicity”. In addition, the “increase of inhibition compared with drug treatment group 2 (compound 2)” value (compound 1 at 15 μg/ml vs compound 2 at 30 μg/ml) is on record as about 10%. Besides, the “effective concentration to inhibit normal human lung fibroblasts proliferation and activation” value (normal human lung fibroblasts) was found to be 15 µg/mL.
